Assay results: ChEMBL document CHEMBL1148857, “In vitro and in vivo profile of 5-[(4'-trifluoromethyl-biphenyl-2-carbonyl)-amino]-1H-indole-2-carboxylic acid benzylmethyl carbamoylamide (dirlotapide), a novel potent MTP inhibitor for obesity” (Bioorg Med Chem Lett, 2007)
The source made the active and inactive calls. No cut-off for these calls is given here.

Tests used:
[1] = biological target: Microsomal triglyceride transfer protein large subunit (Homo sapiens, UniProt P55157); test: Inhibition of MTP assessed as inhibition of apoB secretion from human HepG2 cells; format: cell-based
Homo sapiens [2] = organism: Homo sapiens; test: Inhibition of GABA receptor at 1 uM
[3] = biological target: Adrenergic receptor alpha-1 (Homo sapiens) (UniProt P35348+P25100+P35368); test: Inhibition of adrenergic a1 receptor at 1 uM; format: protein assay
[4] = biological target: Adenosine receptor A2a (Homo sapiens) (UniProt P29274); test: Inhibition of adenosine A2a receptor at 1 uM
[5] = biological target: Adenosine receptor A3 (Homo sapiens) (UniProt P0DMS8); test: Inhibition of adenosine A3 receptor at 1 uM
[6] = biological target: B1 bradykinin receptor (Homo sapiens) (UniProt P46663); test: Inhibition of bradykinin B1 receptor at 1 uM
[7] = biological target: D(1A) dopamine receptor (Homo sapiens) (UniProt P21728); test: Inhibition of dopamine D1 receptor at 1 uM
[8] = biological target: D(2) dopamine receptor (Homo sapiens) (UniProt P14416); test: Inhibition of dopamine D2 receptor at 1 uM
[9] = biological target: D(3) dopamine receptor (Homo sapiens) (UniProt P35462); test: Inhibition of dopamine D3 receptor at 1 uM
[10] = biological target: D(4) dopamine receptor (Homo sapiens) (UniProt P21917); test: Inhibition of dopamine D4 receptor at 1 uM
Homo sapiens [11] = organism: Homo sapiens; test: Inhibition of AMPA receptor at 1 uM
[12] = biological target: 5-hydroxytryptamine receptor 2C (Homo sapiens) (UniProt P28335); test: Inhibition of 5HT2C receptor at 1 uM
[13] = biological target: 5-hydroxytryptamine receptor 4 (Homo sapiens) (UniProt Q13639); test: Inhibition of 5HT4 receptor at 1 uM
[14] = biological target: Melanocortin receptor 4 (Homo sapiens) (UniProt P32245); test: Inhibition of melanocortin MC4 receptor at 1 uM
[15] = biological target: Muscarinic acetylcholine receptor M2 (Homo sapiens) (UniProt P08172); test: Inhibition of muscarinic M2 receptor at 1 uM
[16] = biological target: Muscarinic acetylcholine receptor M3 (Homo sapiens) (UniProt P20309); test: Inhibition of muscarinic M3 receptor at 1 uM
Homo sapiens [17] = organism: Homo sapiens; test: Inhibition of tachykinin receptor at 1 uM
[18] = biological target: Voltage-gated L-type calcium channel (Homo sapiens, UniProt Q13936+Q13698+Q01668+O60840); test: Inhibition of L-type calcium channel at 1 uM
[19] = Permeability from apical to basolateral side of the Caco-2 cell membrane at 1 uM in presence of calcium; format: ADME, cell-based; details: human
[20] = Intrinsic clearance in monkey microsomes; format: ADME, Macaca mulatta, Microsome; details: rhesus monkey
[21] = Metabolic stability in human liver microsome at 0.5 uM; format: ADME; details: liver microsomes
CYP3A4 = test: Metabolic stability in human liver microsome at 0.5 uM in presence of 1 uM CYP3A4 inhibitor ketoconazole; format: ADME; details: liver microsomes, with 1 uM ketoconazole (CYP3A4 inhibitor)
CYP1A2 = test: Metabolic stability in human liver microsome at 0.5 uM in presence of 5 uM CYP1A2 inhibitor furafylline; format: ADME; details: liver microsomes, with 5 uM furafylline (CYP1A2 inhibitor)
Plasma [22] = test: Percentage unbound ligand in rat blood at 1 uM; format: ADME, cell-free
Plasma [23] = test: Percentage unbound ligand in monkey blood at 0.2 uM; format: ADME, cell-free, Macaca mulatta; details: rhesus monkey
[24] = Ratio of drug level in blood to plasma in rat; format: ADME, cell-free; details: blood and plasma, read-out: BPR
[25] = Ratio of drug level in blood to plasma in dog; format: ADME, cell-free, Canis lupus familiaris; details: blood and plasma, read-out: BPR
[26] = Ratio of drug level in blood to plasma in human; format: ADME, cell-free; details: blood and plasma, read-out: BPR
Mus musculus [27] = organism: Mus musculus; test: Inhibition of intestinal MTP in mouse assessed as inhibition of intestinal fat absorption; format: functional
Mus musculus [28] = organism: Mus musculus; test: Inhibition of hepatic MTP in mouse assessed as reduction of triglyceride; format: functional
[29] = Plasma clearance in rat at 0.3 mg/kg, iv; format: ADME, organism-based; design: dose 0.3 mg/kg, route intravenous
[30] = Plasma clearance in Beagle dog at 0.5 mg/kg, iv; format: ADME, organism-based, Canis lupus familiaris; design: dose 0.5 mg/kg, route intravenous
[31] = Volume of distribution at steady state in rat at 1 mg/kg, iv; format: ADME, organism-based; design: dose 1 mg/kg, route intravenous; details: in vivo, read-out: Vdss
[32] = Volume of distribution at steady state in Beagle dog at 1 mg/kg, iv; format: ADME, organism-based, Canis lupus familiaris; design: dose 1 mg/kg, route intravenous; details: in vivo, read-out: Vdss
[33] = Half life in rat at 0.3 mg/kg, iv; format: ADME, organism-based; design: dose 0.3 mg/kg, route intravenous; details: in vivo
[34] = Half life in rat at 1 mg/kg, iv; format: ADME, organism-based; design: dose 1 mg/kg, route intravenous; details: in vivo
[35] = Half life in rat at 5 mg/kg, iv; format: ADME, organism-based; design: dose 5 mg/kg, route intravenous; details: in vivo
[36] = Half life in Beagle dog at 1 mg/kg, iv; format: ADME, organism-based, Canis lupus familiaris; design: dose 1 mg/kg, route intravenous; details: in vivo
[37] = AUC (0 to t) in rat at 0.3 mg/kg, iv; format: ADME, organism-based; design: dose 0.3 mg/kg, route intravenous; details: plasma
[38] = AUC (0 to t) in Beagle dog at 0.5 mg/kg, iv; format: ADME, organism-based, Canis lupus familiaris; design: dose 0.5 mg/kg, route intravenous; details: plasma
[39] = AUC (0 to t) in Beagle dog at 1 mg/kg, iv; format: ADME, organism-based, Canis lupus familiaris; design: dose 1 mg/kg, route intravenous; details: plasma
[40] = AUC (0 to infinity) in rat at 1 mg/kg, iv; format: ADME, organism-based; design: time infinity, dose 1 mg/kg, route intravenous; details: plasma
[41] = AUC (0 to infinity) in rat at 5 mg/kg, iv; format: ADME, organism-based; design: time infinity, dose 5 mg/kg, route intravenous; details: plasma
[42] = AUC (0 to infinity) in Beagle dog at 1 mg/kg, iv; format: ADME, organism-based, Canis lupus familiaris; design: time infinity, dose 1 mg/kg, route intravenous; details: plasma
[43] = AUC (0 to infinity) in portal cannulated Beagle dog at 1 mg/kg, iv; format: ADME, organism-based, Canis lupus familiaris; design: time infinity, dose 1 mg/kg, route intravenous; details: plasma
[44] = AUC (0 to infinity) in monkey at 0.5 mg/kg, iv; format: ADME, organism-based, Macaca mulatta; design: time infinity, dose 0.5 mg/kg, route intravenous; details: rhesus monkey, plasma
[45] = Half life in Beagle dog at 5 mg/kg, po; format: ADME, organism-based, Canis lupus familiaris; design: dose 5 mg/kg, route oral; details: in vivo
[46] = AUC (0 to infinity) in portal cannulated Beagle dog at 1 mg/kg, po; format: ADME, organism-based, Canis lupus familiaris; design: time infinity, dose 1 mg/kg, route oral; details: plasma
[47] = AUC (0 to infinity) in Beagle dog at 0.5 mg/kg, po; format: ADME, organism-based, Canis lupus familiaris; design: time infinity, dose 0.5 mg/kg, route oral; details: plasma
[48] = AUC (0 to infinity) in Beagle dog at 5 mg/kg, po; format: ADME, organism-based, Canis lupus familiaris; design: time infinity, dose 5 mg/kg, route oral; details: plasma
[49] = Cmax in rat at 300 mg/kg, po; format: ADME, organism-based; design: dose 300 mg/kg, route oral; details: in vivo
[50] = Cmax in portal cannulated Beagle dog at 1 mg/kg, po; format: ADME, organism-based, Canis lupus familiaris; design: dose 1 mg/kg, route oral; details: in vivo
[51] = Tmax in rat at 3 mg/kg, po; format: ADME, organism-based; design: dose 3 mg/kg, route oral; details: in vivo
[52] = Tmax in Beagle dog at 5 mg/kg, po; format: ADME, organism-based, Canis lupus familiaris; design: dose 5 mg/kg, route oral; details: in vivo
[53] = Bioavailability in rat at 300 mg/kg, po; format: ADME, organism-based; details: in vivo
Canis familiaris [54] = test: Effect on body weight in obese Beagle dog assessed as weight loss at 0.39 mg/kg, po after 3 months relative to control; format: functional, Canis lupus familiaris
Canis familiaris [55] = test: Decrease in food intake in obese Beagle dog at 0.39 mg/kg, po after 3 months; format: functional, Canis lupus familiaris; design: scale not given: the % may be the effect or the level left
Canis familiaris [56] = test: Decrease in cholesterol level in obese Beagle dog at 0.39 mg/kg, po after 3 months; format: functional, Canis lupus familiaris; design: scale not given: the % may be the effect or the level left
[57] = Permeability from basolateral to apical side of the Caco-2 cell membrane at 10 uM in presence of calcium; format: ADME, cell-based; details: human
Cytochrome P450 1A2 = Cytochrome P450 1A2 (Homo sapiens, UniProt P05177); test: Inhibition of CYP1A2; format: ADME

Muscarinic acetylcholine receptor M2 (Homo sapiens), sequence (P08172 whole entry): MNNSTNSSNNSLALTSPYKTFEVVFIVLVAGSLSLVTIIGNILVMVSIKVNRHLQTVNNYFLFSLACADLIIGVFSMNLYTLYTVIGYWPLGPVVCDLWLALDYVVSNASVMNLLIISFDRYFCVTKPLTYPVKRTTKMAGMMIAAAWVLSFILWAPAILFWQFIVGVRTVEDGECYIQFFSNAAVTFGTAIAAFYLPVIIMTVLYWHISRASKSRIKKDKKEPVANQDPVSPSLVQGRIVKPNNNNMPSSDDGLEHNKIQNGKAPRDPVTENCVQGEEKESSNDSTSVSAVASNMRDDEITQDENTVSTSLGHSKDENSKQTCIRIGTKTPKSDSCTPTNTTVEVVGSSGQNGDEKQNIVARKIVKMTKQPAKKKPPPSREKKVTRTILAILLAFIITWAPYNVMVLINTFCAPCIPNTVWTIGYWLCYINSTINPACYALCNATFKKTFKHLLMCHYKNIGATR
Melanocortin receptor 4 (Homo sapiens), sequence (P32245 whole entry): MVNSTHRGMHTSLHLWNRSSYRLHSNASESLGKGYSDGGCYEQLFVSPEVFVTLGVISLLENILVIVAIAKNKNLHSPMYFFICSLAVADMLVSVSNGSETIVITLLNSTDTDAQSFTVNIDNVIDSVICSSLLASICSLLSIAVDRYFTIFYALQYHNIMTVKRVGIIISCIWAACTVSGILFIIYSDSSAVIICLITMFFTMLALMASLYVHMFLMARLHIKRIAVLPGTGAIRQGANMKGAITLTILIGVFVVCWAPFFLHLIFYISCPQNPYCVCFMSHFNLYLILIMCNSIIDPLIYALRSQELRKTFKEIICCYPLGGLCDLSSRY
D(1A) dopamine receptor (Homo sapiens), sequence (P21728 whole entry): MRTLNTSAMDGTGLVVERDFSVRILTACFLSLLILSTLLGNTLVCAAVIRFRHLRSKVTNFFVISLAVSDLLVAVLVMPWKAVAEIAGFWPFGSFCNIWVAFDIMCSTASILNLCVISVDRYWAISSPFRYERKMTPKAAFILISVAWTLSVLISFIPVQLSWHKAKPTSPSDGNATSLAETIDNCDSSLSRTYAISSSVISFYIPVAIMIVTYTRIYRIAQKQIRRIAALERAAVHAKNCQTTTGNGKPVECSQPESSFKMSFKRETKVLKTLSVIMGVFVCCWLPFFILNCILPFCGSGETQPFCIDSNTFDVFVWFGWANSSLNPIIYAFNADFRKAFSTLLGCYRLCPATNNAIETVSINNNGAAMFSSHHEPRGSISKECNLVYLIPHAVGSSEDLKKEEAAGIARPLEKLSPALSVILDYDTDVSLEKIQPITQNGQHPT
5-hydroxytryptamine receptor 2C (Homo sapiens), sequence (P28335 whole entry): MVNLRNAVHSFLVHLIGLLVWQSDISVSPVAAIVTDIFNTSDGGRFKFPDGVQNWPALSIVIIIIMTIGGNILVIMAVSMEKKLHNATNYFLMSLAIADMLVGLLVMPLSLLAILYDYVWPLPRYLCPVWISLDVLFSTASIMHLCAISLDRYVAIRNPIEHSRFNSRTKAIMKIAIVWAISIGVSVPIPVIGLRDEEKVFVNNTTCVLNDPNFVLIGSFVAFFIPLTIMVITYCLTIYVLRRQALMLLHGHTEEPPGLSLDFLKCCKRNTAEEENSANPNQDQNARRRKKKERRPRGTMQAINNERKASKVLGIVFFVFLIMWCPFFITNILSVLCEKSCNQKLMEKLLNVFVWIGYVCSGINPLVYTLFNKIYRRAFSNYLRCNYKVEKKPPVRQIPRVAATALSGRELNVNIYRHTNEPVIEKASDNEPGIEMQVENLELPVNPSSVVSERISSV
D(3) dopamine receptor (Homo sapiens), sequence (P35462 whole entry): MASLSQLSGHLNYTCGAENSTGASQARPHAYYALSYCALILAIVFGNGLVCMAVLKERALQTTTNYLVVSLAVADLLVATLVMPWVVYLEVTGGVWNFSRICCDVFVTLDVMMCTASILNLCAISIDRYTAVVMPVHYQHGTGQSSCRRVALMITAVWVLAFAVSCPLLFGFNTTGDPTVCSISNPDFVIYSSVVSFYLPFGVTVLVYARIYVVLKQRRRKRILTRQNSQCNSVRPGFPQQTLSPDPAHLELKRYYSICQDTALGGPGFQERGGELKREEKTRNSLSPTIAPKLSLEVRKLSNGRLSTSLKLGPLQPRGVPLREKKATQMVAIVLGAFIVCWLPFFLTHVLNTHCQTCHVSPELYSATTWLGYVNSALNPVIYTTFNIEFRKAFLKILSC
Microsomal triglyceride transfer protein large subunit, sequence (P55157 whole entry): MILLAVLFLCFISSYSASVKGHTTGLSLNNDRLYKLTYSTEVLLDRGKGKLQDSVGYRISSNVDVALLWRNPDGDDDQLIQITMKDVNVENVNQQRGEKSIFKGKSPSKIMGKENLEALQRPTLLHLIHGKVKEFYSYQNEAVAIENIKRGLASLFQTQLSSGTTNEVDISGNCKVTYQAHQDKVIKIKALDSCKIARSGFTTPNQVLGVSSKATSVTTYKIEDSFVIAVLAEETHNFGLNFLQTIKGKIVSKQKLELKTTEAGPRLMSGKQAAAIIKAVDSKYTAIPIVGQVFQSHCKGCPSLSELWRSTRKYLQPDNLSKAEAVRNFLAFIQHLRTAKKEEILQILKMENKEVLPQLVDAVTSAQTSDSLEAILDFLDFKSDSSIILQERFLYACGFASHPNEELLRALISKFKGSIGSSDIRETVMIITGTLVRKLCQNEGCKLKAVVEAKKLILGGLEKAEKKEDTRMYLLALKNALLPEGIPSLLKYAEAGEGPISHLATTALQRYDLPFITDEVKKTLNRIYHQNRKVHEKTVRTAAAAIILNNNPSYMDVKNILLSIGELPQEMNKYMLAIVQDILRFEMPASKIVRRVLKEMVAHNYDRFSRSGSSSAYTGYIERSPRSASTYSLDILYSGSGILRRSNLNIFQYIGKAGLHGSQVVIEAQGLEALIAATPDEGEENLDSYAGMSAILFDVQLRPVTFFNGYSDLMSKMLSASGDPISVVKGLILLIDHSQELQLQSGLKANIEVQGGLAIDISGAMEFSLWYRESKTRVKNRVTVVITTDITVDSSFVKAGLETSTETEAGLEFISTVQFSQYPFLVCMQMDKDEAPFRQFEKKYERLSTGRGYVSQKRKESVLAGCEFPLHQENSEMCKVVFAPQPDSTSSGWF
Muscarinic acetylcholine receptor M3 (Homo sapiens), sequence (P20309 whole entry, looked up): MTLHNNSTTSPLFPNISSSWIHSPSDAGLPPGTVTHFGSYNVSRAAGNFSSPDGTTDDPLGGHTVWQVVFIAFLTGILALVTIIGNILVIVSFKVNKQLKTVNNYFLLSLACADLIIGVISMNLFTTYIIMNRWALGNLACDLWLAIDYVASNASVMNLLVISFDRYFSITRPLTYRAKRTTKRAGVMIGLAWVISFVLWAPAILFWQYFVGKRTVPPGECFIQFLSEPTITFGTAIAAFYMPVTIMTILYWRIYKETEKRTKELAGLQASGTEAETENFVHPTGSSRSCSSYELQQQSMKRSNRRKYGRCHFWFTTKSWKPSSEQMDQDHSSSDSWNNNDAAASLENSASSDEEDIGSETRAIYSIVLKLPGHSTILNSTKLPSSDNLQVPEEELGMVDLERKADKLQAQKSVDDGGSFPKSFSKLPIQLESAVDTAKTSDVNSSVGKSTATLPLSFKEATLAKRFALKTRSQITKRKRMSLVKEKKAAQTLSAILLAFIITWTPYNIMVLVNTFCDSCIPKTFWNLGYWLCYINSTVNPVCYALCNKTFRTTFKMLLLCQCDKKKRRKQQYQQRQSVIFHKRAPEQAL
D(2) dopamine receptor (Homo sapiens), sequence (P14416 whole entry): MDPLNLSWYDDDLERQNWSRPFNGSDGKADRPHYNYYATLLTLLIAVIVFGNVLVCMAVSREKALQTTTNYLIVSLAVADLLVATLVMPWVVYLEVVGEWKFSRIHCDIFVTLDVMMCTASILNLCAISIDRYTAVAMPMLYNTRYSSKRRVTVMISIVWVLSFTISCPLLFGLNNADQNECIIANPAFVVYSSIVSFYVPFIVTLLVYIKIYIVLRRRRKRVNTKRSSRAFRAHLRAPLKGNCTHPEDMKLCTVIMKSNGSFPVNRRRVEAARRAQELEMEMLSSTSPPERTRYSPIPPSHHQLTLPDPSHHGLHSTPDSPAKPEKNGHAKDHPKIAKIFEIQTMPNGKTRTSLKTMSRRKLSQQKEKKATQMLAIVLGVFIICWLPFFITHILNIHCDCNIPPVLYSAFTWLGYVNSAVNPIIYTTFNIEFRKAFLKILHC
B1 bradykinin receptor (Homo sapiens), sequence (P46663 whole entry): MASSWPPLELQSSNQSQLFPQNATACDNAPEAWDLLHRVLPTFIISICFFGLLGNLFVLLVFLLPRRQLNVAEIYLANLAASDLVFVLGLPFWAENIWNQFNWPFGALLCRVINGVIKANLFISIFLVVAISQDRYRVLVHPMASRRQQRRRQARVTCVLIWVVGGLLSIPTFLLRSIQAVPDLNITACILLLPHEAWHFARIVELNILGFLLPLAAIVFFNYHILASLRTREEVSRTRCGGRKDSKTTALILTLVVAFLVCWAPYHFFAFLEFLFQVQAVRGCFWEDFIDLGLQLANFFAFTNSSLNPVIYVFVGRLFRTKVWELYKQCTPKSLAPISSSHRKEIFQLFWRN
Adenosine receptor A3 (Homo sapiens), sequence (P0DMS8 whole entry): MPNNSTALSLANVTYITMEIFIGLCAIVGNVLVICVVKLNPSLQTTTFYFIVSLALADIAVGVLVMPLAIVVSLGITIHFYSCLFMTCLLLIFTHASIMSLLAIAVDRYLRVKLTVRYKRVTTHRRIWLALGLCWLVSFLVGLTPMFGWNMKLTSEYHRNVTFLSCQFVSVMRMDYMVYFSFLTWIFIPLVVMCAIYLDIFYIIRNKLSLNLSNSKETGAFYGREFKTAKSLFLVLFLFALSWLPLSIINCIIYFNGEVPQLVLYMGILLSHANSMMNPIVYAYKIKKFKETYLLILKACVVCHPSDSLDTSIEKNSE

- IC50 [1]: 2.9 nM
- Activity (Homo sapiens [2]): inactive
- Activity [3]: inactive
- Activity [4]: inactive
- Activity [5]: inactive
- Activity [6]: inactive
- Activity [7]: inactive
- Activity [8]: inactive
- Activity [9]: inactive
- Activity [10]: inactive
- Activity (Homo sapiens [11]): inactive
- Activity [12]: inactive
- Activity [13]: inactive
- Activity [14]: inactive
- Activity [15]: inactive
- Activity [16]: inactive
- Activity (Homo sapiens [17]): inactive
- Activity [18]: Not Active
- Papp A→B at 1 µM [19]: 0.6 ×10⁻⁶ cm/s
- CLint scaled [20]: 835 mL/min/kg
- half-life at 0.5 µM [21]: 0.8 h
- half-life at 0.5 µM (CYP3A4): 6.15 h
- half-life at 0.5 µM (CYP1A2): 0.75 h
- Fu (Plasma [22]): 0.032%
- Fu (Plasma [23]): 0.026%
- blood plasma ratio [24]: 0.64
- blood plasma ratio [25]: 0.54
- blood plasma ratio [26]: 0.61
- clearance [29]: 92 mL/min/kg
- clearance [30]: 5.5 mL/min/kg
- Vd [31]: 8 L/kg
- Vd [32]: 1 L/kg
- half-life [33]: 2 h
- half-life [34]: 5.8 h
- half-life [35]: 11.3 h
- half-life [36]: 14 h
- AUC(0-t) [37]: 51 ng·h/mL
- AUC(0-t) [38]: 1490 ng·h/mL
- AUC(0-t) [39]: 3260 ng·h/mL
- AUC(0-inf) [40]: 530 ng·h/mL
- AUC(0-inf) [41]: 5890 ng·h/mL
- AUC(0-inf) [42]: 3610 ng·h/mL
- AUC(0-inf) [43]: 2820 ng·h/mL
- AUC(0-inf) [44]: 703 ng·h/mL
- half-life [45]: 5.9 h
- AUC(0-inf) [46]: 289 ng·h/mL
- AUC(0-inf) [47]: 663 ng·h/mL
- AUC(0-inf) [48]: 1930 ng·h/mL
- Cmax [49]: 27 ng/mL
- Cmax [50]: 26.8 ng/mL
- Tmax [51]: 2.1 h
- Tmax [52]: 3 h
- bioavailability [53]: 1%
- Papp B→A at 10 µM [57]: 0.3 ×10⁻⁶ cm/s
- IC50 (Cytochrome P450 1A2): > 30000 nM
SMILES: CN(Cc1ccccc1)C(=O)[C@@H](NC(=O)c1cc2cc(NC(=O)c3ccccc3-c3ccc(C(F)(F)F)cc3)ccc2n1C)c1ccccc1 [DIRLOTAPIDE]
- ED25 (Mus musculus [27]): 0.16 mg/kg
- ED25 (Mus musculus [28]): 6 mg/kg
- Activity (Canis familiaris [54]): 18.8%
- Activity (Canis familiaris [55]): 54%
- Activity (Canis familiaris [56]): 51%
